Measured values taken from patent publication US9763997B2, “Spray drying vancomycin” (Hospira, Inc., priority 2011, dated 2017).
Where a name gives a salt, the structure may show the parent alone.

Tests used:
[1] = Stability testing of spray dried batches at 25° C./60% RH, 30° C./60% RH, 40° C./75% RH (moisture by Karl Fischer, pH of reconstituted solution, reconstitution time, chromatographic purity); type: physicochemical; details: Initial
Method: (§1) Batches for stability testing were made using the spray dried formulation of vancomycin HCl (15% by weight), PEG-400 (3% by weight), mannitol (3% by weight) in WFI, with the API sourced from Abbott Laboratories (North Chicago, Ill.). Spray dried batches were stored at 25° C./60% Relative Humidity (RH), 30° C./60% RH, and 40° C./75% RH for three months. The stability data on moisture by Karl Fischer, pH (of the reconstituted solution), reconstitution time and chromatographic purity are presented in Table 7. The chromatographic purity was examined using the analytical HPLC method described in the current USP (United States Pharmacopeia) monograph for vancomycin. The test results for the API lot used to make the spray dried product were also listed for comparison.
The chromatographic purity of vancomycin B for all samples tested in this study were within USP specifications. All samples were stored at the accelerated conditions of 40° C./75% RH for 3 months and met USP criterion for vancomycin B by chromatographic purity (NLT 80% vancomycin B).

[2] = Chromatographic purity (vancomycin B and impurities), analytical HPLC method of the USP vancomycin monograph; type: physicochemical
Method: as §1

Row | Structure (SMILES) | % Vancomycin B [1] [%] | Other ([2]; Table 8, other impurities) [%] | N-Demethylvancomycin ([2]; Table 8, tested for impurities) [%] | Vancomycin B ([2]; Table 8, tested for impurities) [%]
1 | CN[C@H](CC(C)C)C(=O)N[C@H]1C(=O)N[C@@H](CC(N)=O)C(=O)N[C@H]2C(=O)N[C@H]3C(=O)N[C@H](C(=O)N[C@H](C(=O)O)c4cc(O)cc(O)c4-c4cc3ccc4O)[C@H](O)c3ccc(c(Cl)c3)Oc3cc2cc(c3O[C@@H]2O[C@H](CO)[C@@H](O)[C@H](O)[C@H]2O[C@H]2C[C@](C)(N)[C@H](O)[C@H](C)O2)Oc2ccc(cc2Cl)[C@H]1O [API Lot 09097619, Vancomycin HCl] | 91.9 |  |  | 
2 | CN[C@H](CC(C)C)C(=O)N[C@H]1C(=O)N[C@@H](CC(N)=O)C(=O)N[C@H]2C(=O)N[C@H]3C(=O)N[C@H](C(=O)N[C@H](C(=O)O)c4cc(O)cc(O)c4-c4cc3ccc4O)[C@H](O)c3ccc(c(Cl)c3)Oc3cc2cc(c3O[C@@H]2O[C@H](CO)[C@@H](O)[C@H](O)[C@H]2O[C@H]2C[C@](C)(N)[C@H](O)[C@H](C)O2)Oc2ccc(cc2Cl)[C@H]1O [API, Vancomycin Hydrochloride] |  | 4.5 | 0.6 | 94.9
